Here are results for 14 compounds from paper PMC7230162, “Syntheses and Glycosidase Inhibitory Activities, and in Silico Docking Studies of Pericosine E Analogs Methoxy-Substituted at C6” (Marine Drugs, 2020).

Read-outs that look alike come from different tables or passages of the source.

Assay [1] has as its target T1, α-glucosidase (Yeast) (Saccharomyces cerevisiae, UniProt P53341). As to the kind of experiment: α-glucosidase inhibitory activity assay (p-nitrophenyl-α-D-glucopyranoside). It is filed as biochemical. The source says:
(§1) The synthesized compounds were subjected to glycosidase inhibitory activity assays (Table 1). Herein, α-galactosidase (from green coffee bean) and β-galactosidase (from bovine lever) were used in addition to the three previously employed glycosidases (α-glucosidase, β-glucosidase, and α-mannosidase). To facilitate comparison across studies, we used the same batches of the three abovementioned glycosidases as those employed before. Some compounds were not tested against all five enzymes because of the limited amount of materials.
(§2) Infrared (IR) spectra were recorded on a 1720X Fourier transformation-infrared (FT-IR) spectrometer (Perkin Elmer, MA, USA) or an IRAffinity-1S FT-IR spectrometer (Shimadzu, Kyoto, Japan). High-resolution mass spectra (HRMS) were recorded on a JMS-700 (2) mass spectrometer (JEOL, Tokyo, Japan). Nuclear magnetic resonance (NMR) spectra were recorded at 27 °C on 400-MR-DD2 (Agilent Technologies, CA, USA) and 600-DD2 (Agilent Technologies, CA, USA) instruments in CDCl3 or acetone-d6 using tetramethylsilane as an internal standard. Specific rotations were measured with a JASCO P-2300 spectrometer (JASCO Co., Tokyo, Japan). Liquid column chromatography was conducted on silica gel (Fuji Silysia FL-60D). Analytical thin layer chromatography (TLC) was performed on Silicagel 70 F254 plates (Wako Pure Chemical Industries, Tokyo, Japan), and compounds were detected by dipping the plates into an ethanolic solution of phosphomolybdic acid followed by heating. Microwave (MW)-aided reactions were carried out in a Biotage Initiator® reactor (PartnerTech Atvidaberg AB for Biotage Sweden AB, Uppsala, Sweden). NaBH4 and trifluoroacetic acid (TFA) were purchased from Wako Pure Chemical Industries (Wako Pure Chemical Industries, Tokyo, Japan). BF3·Et2O was purchased from Sigma-Aldrich Co., LLC (St. Lewis, MO, USA). DMP was purchased from TCI (Tokyo Chemical Industry Co., Ltd., Tokyo, Japan). […] Deoxygalactonojirimycin was purchased from Funakoshi Co., Ltd., Tokyo, Japan).
(§3) After 20 min incubation at 37 °C, the reaction was quenched by addition of Na2CO3 solution (0.5 M, 100 μL). The amount of liberated p-nitrophenol was measured colorimetrically at 400 nm (optical density at 400 nm: ODtest).

Assay [2] addresses T2, β-galactosidase (Bovine Liver) (Bos taurus, UniProt Q58D55).
T2 sequence (Q58D55 28-653): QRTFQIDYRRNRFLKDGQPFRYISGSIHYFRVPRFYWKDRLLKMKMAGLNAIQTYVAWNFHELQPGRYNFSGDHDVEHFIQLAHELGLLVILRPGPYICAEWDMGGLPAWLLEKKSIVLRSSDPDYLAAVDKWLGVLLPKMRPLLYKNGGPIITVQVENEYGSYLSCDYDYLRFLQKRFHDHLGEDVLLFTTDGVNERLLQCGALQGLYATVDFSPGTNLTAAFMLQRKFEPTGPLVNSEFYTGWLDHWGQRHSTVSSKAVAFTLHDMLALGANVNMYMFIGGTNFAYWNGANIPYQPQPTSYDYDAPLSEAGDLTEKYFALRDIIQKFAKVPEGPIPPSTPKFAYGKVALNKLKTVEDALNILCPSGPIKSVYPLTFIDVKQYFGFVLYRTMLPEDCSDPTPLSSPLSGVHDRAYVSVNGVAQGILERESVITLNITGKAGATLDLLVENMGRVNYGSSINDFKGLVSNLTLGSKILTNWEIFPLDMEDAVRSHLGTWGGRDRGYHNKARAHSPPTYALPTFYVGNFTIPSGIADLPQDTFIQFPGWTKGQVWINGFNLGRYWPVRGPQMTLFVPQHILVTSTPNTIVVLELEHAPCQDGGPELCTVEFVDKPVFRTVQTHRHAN
As to the kind of experiment: β-galactosidase inhibitory activity assay (p-nitrophenyl-β-D-galactopyranoside). It is filed as biochemical.
Text: as §1
Infrared (IR) spectra were recorded on a 1720X Fourier transformation-infrared (FT-IR) spectrometer (Perkin Elmer, MA, USA) or an IRAffinity-1S FT-IR spectrometer (Shimadzu, Kyoto, Japan). High-resolution mass spectra (HRMS) were recorded on a JMS-700 (2) mass spectrometer (JEOL, Tokyo, Japan). Nuclear magnetic resonance (NMR) spectra were recorded at 27 °C on 400-MR-DD2 (Agilent Technologies, CA, USA) and 600-DD2 (Agilent Technologies, CA, USA) instruments in CDCl3 or acetone-d6 using tetramethylsilane as an internal standard. Specific rotations were measured with a JASCO P-2300 spectrometer (JASCO Co., Tokyo, Japan). […]
After 20 min incubation at 37 °C, the reaction was quenched by addition of Na2CO3 solution (0.5 M, 100 μL). The amount of liberated p-nitrophenol was measured colorimetrically at 400 nm (optical density at 400 nm: ODtest). […]

Assay [3] addresses β-glucosidase (Sweet Almond). As to the kind of experiment: β-glucosidase inhibitory activity assay (p-nitrophenyl-β-D-glucopyranoside). Type of assay: biochemical. On the procedure: as §2, §3
Assays of β-glucosidase, α-mannosidase, β-mannosidase, and β-galactosidase inhibitory activities were carried out as above using p-nitrophenyl-β-D-glucopyranoside, p-nitrophenyl-α-D-mannopyranoside, p-nitrophenyl-β-D-mannopyranoside, and p-nitrophenyl-β-D-galactopyranoside as substrates.

In assay [4] the target is T1, α-glucosidase (Yeast). The note with it: cited from earlier work; for IC50: values of a previous work.
For assay [5], the target named is T3, α-mannosidase (Jack Bean) (Canavalia ensiformis, UniProt C0HJB3).
T3 construct: purchased Sigma-Aldrich Co., LLC lot 055K7047 (catalogue number not given)
T3 sequence (C0HJB3 1-562): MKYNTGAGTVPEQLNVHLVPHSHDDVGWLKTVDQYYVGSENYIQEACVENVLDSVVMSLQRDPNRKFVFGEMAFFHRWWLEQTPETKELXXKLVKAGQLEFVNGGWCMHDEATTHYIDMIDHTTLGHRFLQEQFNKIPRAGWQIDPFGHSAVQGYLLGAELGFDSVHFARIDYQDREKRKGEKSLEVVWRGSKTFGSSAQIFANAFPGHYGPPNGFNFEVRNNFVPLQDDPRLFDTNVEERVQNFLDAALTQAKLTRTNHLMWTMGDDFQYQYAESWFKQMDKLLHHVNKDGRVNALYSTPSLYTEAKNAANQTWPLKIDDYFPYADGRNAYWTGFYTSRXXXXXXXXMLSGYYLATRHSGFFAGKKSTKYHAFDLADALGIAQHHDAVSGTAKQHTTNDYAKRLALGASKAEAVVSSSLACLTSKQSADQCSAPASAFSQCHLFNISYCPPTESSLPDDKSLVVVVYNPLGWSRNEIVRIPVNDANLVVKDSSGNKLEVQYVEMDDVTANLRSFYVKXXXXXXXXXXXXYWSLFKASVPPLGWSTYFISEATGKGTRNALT
T3 sequence (C0HJB3 563-981): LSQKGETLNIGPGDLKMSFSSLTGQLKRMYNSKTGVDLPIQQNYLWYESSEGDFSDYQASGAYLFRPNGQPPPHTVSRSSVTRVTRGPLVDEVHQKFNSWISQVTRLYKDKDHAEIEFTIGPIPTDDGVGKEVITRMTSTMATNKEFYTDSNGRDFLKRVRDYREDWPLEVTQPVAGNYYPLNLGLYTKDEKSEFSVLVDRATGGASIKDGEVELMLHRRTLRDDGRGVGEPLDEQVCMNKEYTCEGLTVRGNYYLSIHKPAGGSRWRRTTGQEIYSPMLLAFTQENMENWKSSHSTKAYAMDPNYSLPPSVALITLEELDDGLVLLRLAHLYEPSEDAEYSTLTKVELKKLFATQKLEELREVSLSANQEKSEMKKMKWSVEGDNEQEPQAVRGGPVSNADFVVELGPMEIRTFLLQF
The note with it: read-out: IC50 (M) α-mannosidase (Jack Bean); values of a previous work; cited from earlier work.

Assay [6] deals with β-glucosidase (Sweet Almond). Set-up: method as in PMID 28124983. The note with it: values of a previous work; cited from earlier work.

The IC50 is the concentration at which inhibition is half-maximal.

T1 sequence (P53341 whole entry): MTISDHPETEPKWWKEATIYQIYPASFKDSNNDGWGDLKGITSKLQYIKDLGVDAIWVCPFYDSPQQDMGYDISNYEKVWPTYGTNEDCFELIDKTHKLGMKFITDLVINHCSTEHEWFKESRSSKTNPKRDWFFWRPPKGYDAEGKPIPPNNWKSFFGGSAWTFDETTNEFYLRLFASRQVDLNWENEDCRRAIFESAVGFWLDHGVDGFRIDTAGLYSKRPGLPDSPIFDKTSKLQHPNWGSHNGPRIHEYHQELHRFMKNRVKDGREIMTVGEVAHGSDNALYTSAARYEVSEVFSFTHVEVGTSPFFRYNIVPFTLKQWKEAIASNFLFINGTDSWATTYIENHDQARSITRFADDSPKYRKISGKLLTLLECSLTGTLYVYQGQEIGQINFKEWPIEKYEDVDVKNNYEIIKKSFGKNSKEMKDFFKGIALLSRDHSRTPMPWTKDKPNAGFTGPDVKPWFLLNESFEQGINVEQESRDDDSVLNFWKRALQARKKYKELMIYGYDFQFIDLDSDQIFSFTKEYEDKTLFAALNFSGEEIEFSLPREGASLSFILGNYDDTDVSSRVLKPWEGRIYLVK

Turning to `COC(=O)C1=CC(O)C(O)C(O)C1OC1C(OC)C(C(=O)OC)=CC(O)C1O` (single isomer, unassigned; (-)) [(−)-24], the “α-glucosidase inhibitory activity (in words)” value on α-glucosidase (Yeast) [1] is “moderately inhibited”. Further, the “β-galactosidase inhibitory activity (in words)” value in assay [2] is recorded as “showed β-galactosidase inhibitory activities”. For the same compound, in assay [3], the IC50 is […].
On to `COC(=O)C1=CC(O)C(O)C(O)C1OC1C(OC)C(C(=O)OC)=CC(O)C1O` (single isomer, unassigned; (-)) [(−)-9], for which the IC50 in assay [3] is […].
In assay [3], `OC[C@H]1NC[C@@H](O)[C@@H](O)[C@@H]1O` [Deoxymannojirimycin, deoxymannojirimycin, reference compound] gave an IC50 of […].
For `COC(=O)C1=C[C@@H](O)[C@@H](O)[C@@H](O[C@H]2C(C(=O)OC)=C[C@@H](O)[C@@H](O)[C@@H]2O)[C@@H]1OC` [(−)-21], the IC50 in assay [3] was […].
On to `COC(=O)C1=CC(O)C(O)C(O)C1OC1C(OC)C(C(=O)OC)=CC(O)C1O` (single isomer, unassigned; (+)) [(+)-6], for which, at α-glucosidase (Yeast) [1], the “α-glucosidase inhibitory activity (in words)” value is “moderately inhibited”. The half-maximal inhibitory concentration (IC50) in assay [3] was […].
`COC(=O)C1=CC(O)C(O)C(O)C1OC1C(OC)C(C(=O)OC)=CC(O)C1O` (single isomer, unassigned; (+)) [(+)-14] displayed an IC50 in assay [3] of […].
On to `OC[C@H]1NC[C@H](O)[C@@H](O)[C@H]1O` [Deoxygalactonojirimycin, reference compound], for which half-maximal inhibition in assay [2] (IC50) was put at 0.14 mM.
On to `COC(=O)C1=CC(O)C(O)C(O)C1OC1C(OC)C(C(=O)OC)=CC(O)C1O` (single isomer, unassigned; (-)) [(−)-8], for which the “α-glucosidase inhibitory activity (in words)” value at α-glucosidase (Yeast) [1] is recorded as “moderately inhibited”. Moreover, the IC50 in assay [3] is […].
Regarding `COC(=O)C1=C[C@H](O)[C@H](O)[C@H](O[C@H]2C(C(=O)OC)=C[C@@H](O)[C@@H](O)[C@H]2O)[C@H]1Cl` [(+)-4, (+)-pericosine E], the “α-glucosidase inhibitory activity (in words)” value at α-glucosidase (Yeast) [4] is listed as “potent activity”. Further, the IC50 was 0.031 mM at α-glucosidase (Yeast) [4], over 0.0078 M in assay [5] and over 7.8 mM in assay [6].
On to `COC(=O)C1=CC(O)C(O)C(O)C1OC1C(OC)C(C(=O)OC)=CC(O)C1O` (single isomer, unassigned; (-)) [(−)-7], for which, at α-glucosidase (Yeast) [1], the “α-glucosidase inhibitory activity (in words)” value was “moderately inhibited”. Further, the IC50 in assay [3] is […].
In assay [3], `OC[C@H]1NC[C@H](O)[C@@H](O)[C@@H]1O` [Deoxynojirimycin (DNJ), 1-Deoxynojirimycin, reference compound] displayed an IC50 of […].
Turning to `COC(=O)C1=CC(O)C(O)C(OC2C(C(=O)OC)=CC(O)C(O)C2O)C1Cl` (single isomer, unassigned; (-)) [(−)-5], the IC50 in assay [5] was over 0.0078 M; in assay [6], over 7.8 mM.
Compound `COC(=O)C1=C[C@H](O)[C@H](O)[C@H](O[C@H]2C(C(=O)OC)=C[C@@H](O)[C@@H](O)[C@@H]2O)[C@@H]1OC` [(−)-18] showed an IC50 in assay [3] of […].
Consider `COC(=O)C1=C[C@@H](O)[C@@H](O)[C@@H](O[C@@H]2C(C(=O)OC)=C[C@H](O)[C@H](O)[C@@H]2O)[C@@H]1Cl` [(−)-4, (−)-pericosine E], for which the IC50 on α-glucosidase (Yeast) [4] is 1.5 mM; in assay [5] it was over 0.0078 M; in assay [6] it was over 7.8 mM.
